Measured values: US6620833B1, “Substituted benzimidazoles, production and use thereof as agents for combating parasitic protozoas” (Bayer Aktiengesellschaft, priority 1998, dated 2003)

Key:
Type in all cases: in vivo
Eimeria maxima = assay: Cage experiment on coccidiosis/chicks, E. maxima readout; conditions: for Efficacy against Eimeria maxima: second symbol of cell
[1] = tested on: Eimeria acervulina, Eimeria maxima and Eimeria tenella; assay: Cage experiment on coccidiosis/chicks, mixed experimental infection; conditions: for dropping scores / lesion score: assessment 0 to 6; for mortality n: dead animals/animals employed
Experimental: 8 to 12 day-old male chicks (e.g. LSL Brinkschulte/Senden) which have been reared coccidia-free receive the compounds according to the invention (test substances) in the concentration indicated in ppm with the feed from 3 days before (day −3) infection (=a.i.) until 8 (9) days after infection (=p.i.). 3 animals are kept in each cage. One or more groups of this type are employed per dose. Infection is carried out by means of a stomach tube directly into the crop with approximately 100,000 sporulated oocysts of Eimeria acervulina and with approximately 30,000 oocysts each of E. maxima and 40,000 sporulated oocysts of E. tenella. These are highly virulent strains. The exact infection dose is adjusted so that, if possible, one of three experimentally infected untreated chicks dies due to the infection. For assessment of the efficacy, the following criteria are taken into account: weight increase from the start of the experiment to the end of the experiment, death rate due to infection, macroscopic assessment of the faeces with respect to diarrhoea and excretion of blood on days 5 and 7 p.i. (assessment 0 to 6), macroscopic assessment of the intestinal mucosa, in particular of the appendices (assessment 0 to 6) and the oocyst excretion as well as the proportion (in %) of the oocysts sporulating in the course of 24 hours. The number of oocysts in the faeces was determined with the aid of a McMaster counting chamber (see Engelbrecht and coworkers “Parasitologische Arbeitsmethoden in Medizin and Veterinärmedizin” [Parasitological Working Methods in Medicine and Veterinary Medicine], Akademie-Verlag, Berlin (1965)). The individual findings are related to the untreated non-infected control groups and a total score is calculated (cf. A. Haberkorn (1986), pp. 263 to 270 in Research in Avian Coccidiosis ed L. R. McDougald, L. P. Joyner, P. L. Long, Proceedings of the Georgia Coccidiosis Conference, Nov. 18-20, 1985. Athens/Georgia USA).
In the column “ppm”, the concentration of the active compound employed in the feed is indicated in ppm.
In the column “mortality” the percentage of the dead animals is indicated under % and the number of dead animals/animals employed in the experiment is indicated under n.
In the column “weight % of not inf. control” the ratio of the weight of the treated animals to the weight of the non-infected control group is indicated.
In the columns “dropping scores”, “lesion score” and “oocyst control”, individual details of the action are given.
In the column “% efficacy”, the total score is assessed; 0% means no action, 100% means full action.

Eimeria tenella = assay: Cage experiment on coccidiosis/chicks, E. tenella readout; conditions: for Efficacy against Eimeria tenella: third symbol of cell
Eimeria acervulina = assay: Cage experiment on coccidiosis/chicks, E. acervulina readout; conditions: for Efficacy against Eimeria acervulina: first symbol of cell

SMILES: CCN(Cn1c(C(F)(F)F)nc2c(Br)cc3c(c21)OC(F)(F)C(F)(F)O3)C(=O)OC [Ex. 1]
- oocyst in % of inf. control max. (Eimeria maxima; Table 1, 7.5 ppm in feed): 0%
- oocyst in % of inf. control max. (Eimeria maxima; Table 1, 10 ppm in feed): 0%
- oocyst in % of inf. control max. (Eimeria maxima; Table 2, 1 ppm in feed): 100%
- oocyst in % of inf. control max. (Eimeria maxima; Table 2, 2.5 ppm in feed): 100%
- oocyst in % of inf. control max. (Eimeria maxima; Table 2, 5 ppm in feed): 100%
- oocyst in % of inf. control max. (Eimeria maxima; Table 3, 5 ppm in feed): 0%
- oocyst in % of inf. control max. (Eimeria maxima; Table 3, 7.5 ppm in feed): 0%
- oocyst in % of inf. control max. (Eimeria maxima; Table 3, 10 ppm in feed): 0%
- Efficacy against Eimeria maxima (Eimeria maxima; Table 4, dose 2.5 ppm): 1
- Efficacy against Eimeria maxima (Eimeria maxima; Table 4, dose 5 ppm): 2
- Efficacy against Eimeria maxima (Eimeria maxima; Table 4, dose 10 ppm): 2
- % efficacy tot. ([1]; Table 1, 7.5 ppm in feed): 65%
- mortality % ([1]; Table 1, 7.5 ppm in feed): 0%
- oocyst in % of inf. control tot. ([1]; Table 1, 7.5 ppm in feed): 1.3%
- weight % of not inf. control ([1]; Table 1, 7.5 ppm in feed): 76%
- dropping scores ([1]; Table 1, 7.5 ppm in feed): 6
- lesion score ([1]; Table 1, 7.5 ppm in feed): 5.3
- mortality n ([1]; Table 1, 7.5 ppm in feed): 0/3
- % efficacy tot. ([1]; Table 1, 10 ppm in feed): 75%
- mortality % ([1]; Table 1, 10 ppm in feed): 0%
- oocyst in % of inf. control tot. ([1]; Table 1, 10 ppm in feed): 0%
- weight % of not inf. control ([1]; Table 1, 10 ppm in feed): 84%
- dropping scores ([1]; Table 1, 10 ppm in feed): 6
- lesion score ([1]; Table 1, 10 ppm in feed): 3.3
- mortality n ([1]; Table 1, 10 ppm in feed): 0/3
- % efficacy tot. ([1]; Table 2, 1 ppm in feed): 36%
- mortality % ([1]; Table 2, 1 ppm in feed): 33%
- oocyst in % of inf. control tot. ([1]; Table 2, 1 ppm in feed): 82%
- weight % of not inf. control ([1]; Table 2, 1 ppm in feed): 31%
- dropping scores ([1]; Table 2, 1 ppm in feed): 6
- lesion score ([1]; Table 2, 1 ppm in feed): 6
- mortality n ([1]; Table 2, 1 ppm in feed): 1/3
- % efficacy tot. ([1]; Table 2, 2.5 ppm in feed): 36%
- mortality % ([1]; Table 2, 2.5 ppm in feed): 33%
- oocyst in % of inf. control tot. ([1]; Table 2, 2.5 ppm in feed): 58%
- weight % of not inf. control ([1]; Table 2, 2.5 ppm in feed): 42%
- dropping scores ([1]; Table 2, 2.5 ppm in feed): 4-6
- lesion score ([1]; Table 2, 2.5 ppm in feed): 6
- mortality n ([1]; Table 2, 2.5 ppm in feed): 1/3
- % efficacy tot. ([1]; Table 2, 5 ppm in feed): 90%
- mortality % ([1]; Table 2, 5 ppm in feed): 0%
- oocyst in % of inf. control tot. ([1]; Table 2, 5 ppm in feed): 37%
- weight % of not inf. control ([1]; Table 2, 5 ppm in feed): 110%
- dropping scores ([1]; Table 2, 5 ppm in feed): 1
- lesion score ([1]; Table 2, 5 ppm in feed): 0
- mortality n ([1]; Table 2, 5 ppm in feed): 0/3
- % efficacy tot. ([1]; Table 3, 5 ppm in feed): 45%
- mortality % ([1]; Table 3, 5 ppm in feed): 0%
- oocyst in % of inf. control tot. ([1]; Table 3, 5 ppm in feed): 12%
- weight % of not inf. control ([1]; Table 3, 5 ppm in feed): 72%
- dropping scores ([1]; Table 3, 5 ppm in feed): 6
- lesion score ([1]; Table 3, 5 ppm in feed): 6
- mortality n ([1]; Table 3, 5 ppm in feed): 0/3
- % efficacy tot. ([1]; Table 3, 7.5 ppm in feed): 65%
- mortality % ([1]; Table 3, 7.5 ppm in feed): 0%
- oocyst in % of inf. control tot. ([1]; Table 3, 7.5 ppm in feed): 1.3%
- weight % of not inf. control ([1]; Table 3, 7.5 ppm in feed): 76%
- dropping scores ([1]; Table 3, 7.5 ppm in feed): 6
- lesion score ([1]; Table 3, 7.5 ppm in feed): 5.3
- mortality n ([1]; Table 3, 7.5 ppm in feed): 0/3
- % efficacy tot. ([1]; Table 3, 10 ppm in feed): 75%
- mortality % ([1]; Table 3, 10 ppm in feed): 0%
- oocyst in % of inf. control tot. ([1]; Table 3, 10 ppm in feed): 0%
- weight % of not inf. control ([1]; Table 3, 10 ppm in feed): 84%
- dropping scores ([1]; Table 3, 10 ppm in feed): 6
- lesion score ([1]; Table 3, 10 ppm in feed): 3.3
- mortality n ([1]; Table 3, 10 ppm in feed): 0/3
- oocyst in % of inf. control ten. (Eimeria tenella; Table 1, 7.5 ppm in feed): 1%
- oocyst in % of inf. control ten. (Eimeria tenella; Table 1, 10 ppm in feed): 1%
- oocyst in % of inf. control ten. (Eimeria tenella; Table 2, 1 ppm in feed): 97%
- oocyst in % of inf. control ten. (Eimeria tenella; Table 2, 2.5 ppm in feed): 55%
- oocyst in % of inf. control ten. (Eimeria tenella; Table 2, 5 ppm in feed): 11%
- oocyst in % of inf. control ten. (Eimeria tenella; Table 3, 5 ppm in feed): 30%
- oocyst in % of inf. control ten. (Eimeria tenella; Table 3, 7.5 ppm in feed): 1%
- oocyst in % of inf. control ten. (Eimeria tenella; Table 3, 10 ppm in feed): 1%
- Efficacy against Eimeria tenella (Eimeria tenella; Table 4, dose 2.5 ppm): 1
- Efficacy against Eimeria tenella (Eimeria tenella; Table 4, dose 5 ppm): 2
- Efficacy against Eimeria tenella (Eimeria tenella; Table 4, dose 10 ppm): 2
- oocyst in % of inf. control ac. (Eimeria acervulina; Table 1, 7.5 ppm in feed): 3%
- oocyst in % of inf. control ac. (Eimeria acervulina; Table 1, 10 ppm in feed): 0%
- oocyst in % of inf. control ac. (Eimeria acervulina; Table 2, 1 ppm in feed): 49%
- oocyst in % of inf. control ac. (Eimeria acervulina; Table 2, 2.5 ppm in feed): 19%
- oocyst in % of inf. control ac. (Eimeria acervulina; Table 2, 5 ppm in feed): 1%
- oocyst in % of inf. control ac. (Eimeria acervulina; Table 3, 5 ppm in feed): 6%
- oocyst in % of inf. control ac. (Eimeria acervulina; Table 3, 7.5 ppm in feed): 3%
- oocyst in % of inf. control ac. (Eimeria acervulina; Table 3, 10 ppm in feed): 0%
- Efficacy against Eimeria acervulina (Eimeria acervulina; Table 4, dose 2.5 ppm): 1
- Efficacy against Eimeria acervulina (Eimeria acervulina; Table 4, dose 5 ppm): 2
- Efficacy against Eimeria acervulina (Eimeria acervulina; Table 4, dose 10 ppm): 2

SMILES: COC(=O)N(C)Cn1c(C(F)(F)F)nc2c(Br)cc3c(c21)OC(F)(F)C(F)(F)O3 [Ex. 2]
- Efficacy against Eimeria maxima (Eimeria maxima; Table 4, dose 2.5 ppm): 2
- Efficacy against Eimeria maxima (Eimeria maxima; Table 4, dose 5 ppm): 2
- Efficacy against Eimeria maxima (Eimeria maxima; Table 4, dose 10 ppm): D D D
- Efficacy against Eimeria tenella (Eimeria tenella; Table 4, dose 2.5 ppm): 1
- Efficacy against Eimeria tenella (Eimeria tenella; Table 4, dose 5 ppm): 2
- Efficacy against Eimeria tenella (Eimeria tenella; Table 4, dose 10 ppm): D D D
- Efficacy against Eimeria acervulina (Eimeria acervulina; Table 4, dose 2.5 ppm): 1
- Efficacy against Eimeria acervulina (Eimeria acervulina; Table 4, dose 5 ppm): 2
- Efficacy against Eimeria acervulina (Eimeria acervulina; Table 4, dose 10 ppm): D D D

SMILES: COC(=O)N(C)Cn1c(C(F)(F)F)nc2c(Cl)cc3c(c21)OC(F)(F)C(F)(F)O3 [Ex. 3]
- Efficacy against Eimeria maxima (Eimeria maxima; Table 4, dose 2.5 ppm): 2
- Efficacy against Eimeria maxima (Eimeria maxima; Table 4, dose 5 ppm): 2
- Efficacy against Eimeria maxima (Eimeria maxima; Table 4, dose 10 ppm): 2
- Efficacy against Eimeria tenella (Eimeria tenella; Table 4, dose 2.5 ppm): 1
- Efficacy against Eimeria tenella (Eimeria tenella; Table 4, dose 5 ppm): 2
- Efficacy against Eimeria tenella (Eimeria tenella; Table 4, dose 10 ppm): 2
- Efficacy against Eimeria acervulina (Eimeria acervulina; Table 4, dose 2.5 ppm): 0
- Efficacy against Eimeria acervulina (Eimeria acervulina; Table 4, dose 5 ppm): 2
- Efficacy against Eimeria acervulina (Eimeria acervulina; Table 4, dose 10 ppm): 2

SMILES: CCN(Cn1c(C(F)(F)F)nc2c(Cl)cc3c(c21)OC(F)(F)C(F)(F)O3)C(=O)OC [Ex. 4]
- Efficacy against Eimeria maxima (Eimeria maxima; Table 4, dose 2.5 ppm): 2
- Efficacy against Eimeria maxima (Eimeria maxima; Table 4, dose 5 ppm): 1
- Efficacy against Eimeria maxima (Eimeria maxima; Table 4, dose 10 ppm): 1
- Efficacy against Eimeria tenella (Eimeria tenella; Table 4, dose 2.5 ppm): 1
- Efficacy against Eimeria tenella (Eimeria tenella; Table 4, dose 5 ppm): 1
- Efficacy against Eimeria tenella (Eimeria tenella; Table 4, dose 10 ppm): 1
- Efficacy against Eimeria acervulina (Eimeria acervulina; Table 4, dose 2.5 ppm): 1
- Efficacy against Eimeria acervulina (Eimeria acervulina; Table 4, dose 5 ppm): 1
- Efficacy against Eimeria acervulina (Eimeria acervulina; Table 4, dose 10 ppm): 1
